Test results as given in US9181234B2, “Antibacterial compounds” (priority 2010, dated 2015).
Converted amounts (≈) assume the structure as drawn.

Legend:
[1] = physchem; details: kinetic from dmso stock
Protocol: Turbimetric Assay: Determination of Solubility
The solubility of the compounds was measured using a turbidimetric method. A series of doubling dilutions of compounds were prepared in neat dimethyl sulfoxide (DMSO). 5 μl samples were diluted twenty-fold into 95 μl volumes of 100 mM citrate buffer (pH 4), phosphate buffered saline (PBS, pH 7.4) or carbonate-bicarbonate buffer (pH 9) in microtitre assay plates and allowed to reach equilibrium at room temperature for 24 hours. The absorbance within each well of the plate was read spectrophotometrically at a wavelength of 620 nm. A precipitate forms when the maximum aqueous solubility level is reached. The value quoted is the highest concentration where the compound was in solution i.e. where no measurable precipitate was present. […] ND=not determined

[2] = system: Staphylococcus aureus (Isolate ID ATCC 29213); assay: Antibacterial activity, MIC, S. aureus; assay type: cell-based; details: Staphylococcus aureus, ATCC29213, Gram positive strain; broth microdilution or agar dilution
Protocol: (§1) Bacterial Assay: Determination of Antibacterial Activity
(§2) Compounds of the invention were tested for antimicrobial activity by susceptibility testing in liquid or on solid media. MICs for compounds against each strain were determined by the broth microdilution or agar dilution method according to the guidelines of the Clinical Laboratories and Standards Institute, formerly the National Committee for Clinical Laboratory Standards (Clinical Laboratories and Standards Institute. Methods for Dilution Antimicrobial Susceptibility Tests for Bacteria That Grow Aerobically; Approved Standard—Seventh Edition. Document M7-A7. CLSI, Wayne, Pa., 2006; Clinical Laboratories and Standards Institute. The gram positive bacterial strains tested include S. aureus (Staphylococcus aureus (Isolate ID ATCC 29213)), E. faecalis (Enterococcus faecalis (Isolate ID ATCC 29212)) and S. pyogenes (Streptococcus pyogenes (Isolate ID ATCC 51339)). The gram negative bacterial strains tested include H. influenzae (Haemophilus influenzae (Isolate ID ATCC 49247))

[3] = system: Streptococcus pyogenes (Isolate ID ATCC 51339); assay: Antibacterial activity, MIC, S. pyogenes; assay type: cell-based; details: Streptococcus pyogenes, ATCC51339, Gram positive strain; broth microdilution or agar dilution
Protocol: as §1, §2

[4] = system: Haemophilus influenzae (Isolate ID ATCC 49247); assay: Antibacterial activity, MIC, H. influenzae; assay type: cell-based; details: Haemophilus influenzae, ATCC49247; Gram negative strain; broth microdilution or agar dilution
Protocol: as §1, §2

[5] = pH 7.4, aqueous buffer, Max Solubility
[6] = pH 7.4, aqueous buffer, Solubility (pH 7.4)
[7] = pH 7.4, aqueous buffer, Solubility Range
[8] = pH 7.4, aqueous buffer, Solubility Range (maximum solubility)
[9] = pH 9, aqueous buffer, Max Solubility
[10] = pH 9, aqueous buffer, Solubility Range (maximum solubility)

| SMILES | solubility at 24 h [1, 5] [µg/mL] | solubility at 24 h [1, 6] [µg/mL] | solubility at 24 h [1, 7] [µg/mL] | solubility at 24 h [1, 8] [µg/mL] | MIC [2] [µg/mL] | MIC [3] [µg/mL] | MIC [4] [µg/mL] | solubility at 24 h [1, 9] [µg/mL] | solubility at 24 h [1, 10] [µg/mL] |
| --- | --- | --- | --- | --- | --- | --- | --- | --- | --- |
| CCNC(=O)Nc1nc2cc(-c3cnc(N4CCC(C)(C(=O)O)CC4)nc3)cc(CN3CCOCC3)c2s1 [Compound 158, 1-[5-[2-(ethylcarbamoylamino)-7-(morpholinomethyl)-1,3-benzothiazol-5-yl]pyrimidin-2-yl]-4-methyl-piperidine-4-carboxylic acid] | ≥ 800 | ≥ 800 | > 800 | > 800 | 1 to 16 (≈ 1.85 to 29.6 µM) | 1 to 16 (≈ 1.85 to 29.6 µM) | > 16 |  |  |
| CCNC(=O)Nc1nc2cc(-c3cnc(N4CCC(C)(C(=O)O)CC4)nc3)cc(C(=O)N3CCOCC3)c2s1 [Compound 159, 1-[5-[2-(ethylcarbamoylamino)-7-(morpholine-4-carbonyl)-1,3-benzothiazol-5-yl]pyrimidin-2-yl]-4-methyl-piperidine-4-carboxylic acid] | 400 (≈ 722 µM) | 400 (≈ 722 µM) | 400 to 800 (≈ 722 to 1440 µM) | 400 to 800 (≈ 722 to 1440 µM) | > 16 | > 16 | > 16 |  |  |
| CCNC(=O)Nc1nc2cc(-c3cnc(N4CCC(C)(C(=O)O)CC4)nc3)nc(-c3ccccn3)c2s1 [Compound 162, 1-[5-[2-(ethylcarbamoylamino)-4-(2-pyridyl)thiazolo[5,4-c]pyridin-6-yl]pyrimidin-2-yl]-4-methyl-piperidine-4-carboxylic acid] |  | 200 (≈ 386 µM) | 12.5 to 400 (≈ 24.1 to 771 µM) |  | ≤ 0.25 | ≤ 0.25 | 1 to 16 (≈ 1.93 to 30.9 µM) | 400 (≈ 771 µM) | 400 to 800 (≈ 771 to 1540 µM) |
| CCNC(=O)Nc1nc2cc(-c3cnc(N4CCCC(C)(C(=O)O)CC4)nc3)cc(-c3ccccn3)c2s1 (centres unmarked) [Compound 166] | ≥ 800 | ≥ 800 | > 800 | > 800 | ≤ 0.25 | ≤ 0.25 | 1 to 16 (≈ 1.88 to 30.1 µM) |  |  |
| CCNC(=O)Nc1nc2cc(-c3ccnc(N4CCC(C)(C(=O)O)CC4)c3)cc(-c3ccccn3)c2s1 [Compound 182] |  | 200 (≈ 387 µM) | 12.5 to 400 (≈ 24.2 to 774 µM) |  | 1 to 16 (≈ 1.94 to 31 µM) | ≤ 0.25 | > 16 | ≥ 800 | > 800 |
| CCNC(=O)Nc1nc2cc(-c3cnc(N4CCC(C)(C(=O)NS(C)(=O)=O)CC4)nc3)cc(-c3ccccn3)c2s1 [Compound 186] | ≥ 800 | ≥ 800 | > 800 | > 800 | 1 to 16 (≈ 1.68 to 26.9 µM) | ≤ 0.25 | 1 to 16 (≈ 1.68 to 26.9 µM) |  |  |
| CCNC(=O)Nc1nc2cc(-c3cnc(N4CCC(C)(C(=O)O)CC4)nc3)cc(/C(C)=N/OCCO)c2s1 [Compound 187] |  | ≥ 800 | > 800 |  | 1 to 16 (≈ 1.85 to 29.5 µM) | 0.25 to 1 (≈ 0.462 to 1.85 µM) | 1 to 16 (≈ 1.85 to 29.5 µM) | ≥ 800 | > 800 |
| CCNC(=O)Nc1nc2cc(-c3cnc(N4CCC(C)(C(=O)O)CC4)nc3)cc(/C(C)=N/OCCOC)c2s1 [Compound 188] | ≥ 800 | ≥ 800 | > 800 | > 800 | 1 to 16 (≈ 1.8 to 28.8 µM) | 1 to 16 (≈ 1.8 to 28.8 µM) | > 16 |  |  |
| CCNC(=O)Nc1nc2cc(-c3cnc4c(c3)OC(C)(C(=O)O)C(=O)N4)cc(-c3ccccn3)c2s1 (centres unmarked) [Compound 190, 7-[2-(ethylcarbamoylamino)-7-(2-pyridyl)-1,3-benzothiazol-5-yl]-2-methyl-3-oxo-4H-pyrido[3,2-b][1,4]oxazine-2-carboxylic acid] | 400 (≈ 793 µM) | 400 (≈ 793 µM) | 400 to 800 (≈ 793 to 1590 µM) | 400 to 800 (≈ 793 to 1590 µM) | 0.25 to 1 (≈ 0.496 to 1.98 µM) | 0.25 to 1 (≈ 0.496 to 1.98 µM) | > 16 |  |  |
| CCNC(=O)Nc1nc2cc(-c3cnc(N4CCC(C)(C(=O)OCC)CC4)nc3)c(OC)cc2s1 [Compound 191, Ethyl 1-[5-[2-(ethylcarbamoylamino)-6-methoxy-1,3-benzothiazol-5-yl]pyrimidin-2-yl]-4-methyl-piperidine-4-carboxylate] | 6.25 (≈ 12.5 µM) | 6.25 (≈ 12.5 µM) | < 12.5 | < 12.5 | 1 to 16 (≈ 2.01 to 32.1 µM) | 1 to 16 (≈ 2.01 to 32.1 µM) | 1 to 16 (≈ 2.01 to 32.1 µM) |  |  |
| CCNC(=O)Nc1nc2cc(-c3cnc(C(=O)N4CCC(C)(C(=O)O)CC4)nc3)cc(-c3ccccn3)c2s1 [Compound 192] | ≥ 800 | ≥ 800 | > 800 | > 800 | 1 to 16 (≈ 1.83 to 29.3 µM) | 1 to 16 (≈ 1.83 to 29.3 µM) | 1 to 16 (≈ 1.83 to 29.3 µM) |  |  |
| CCNC(=O)Nc1nc2cc(-c3cnc(N4CCC(CC)(C(=O)O)CC4)nc3)cc(C(N)=O)c2s1 [Compound 193, 1-[5-[7-carbamoyl-2-(ethylcarbamoylamino)-1,3-benzothiazol-5-yl]pyrimidin-2-yl]-4-ethyl-piperidine-4-carboxylic acid] | ≥ 800 | ≥ 800 | > 800 | > 800 | 1 to 16 (≈ 2.01 to 32.2 µM) | 1 to 16 (≈ 2.01 to 32.2 µM) | 1 to 16 (≈ 2.01 to 32.2 µM) |  |  |

The next lines start with the values.

| solubility at 24 h [1, 5] [µg/mL] | solubility at 24 h [1, 6] [µg/mL] | solubility at 24 h [1, 7] [µg/mL] | solubility at 24 h [1, 8] [µg/mL] | MIC [2] [µg/mL] | MIC [3] [µg/mL] | MIC [4] [µg/mL] | solubility at 24 h [1, 9] [µg/mL] | solubility at 24 h [1, 10] [µg/mL] | SMILES |
| --- | --- | --- | --- | --- | --- | --- | --- | --- | --- |
| ≥ 800 | ≥ 800 | > 800 | > 800 | 1 to 16 (≈ 1.89 to 30.3 µM) | 1 to 16 (≈ 1.89 to 30.3 µM) | 1 to 16 (≈ 1.89 to 30.3 µM) |  |  | CCNC(=O)Nc1nc2cc(-c3cnc(N4CCC(C)(C(=O)O)CC4)nc3)cc(COCCOC)c2s1 [Compound 194] |
| ≥ 800 | ≥ 800 | > 800 | > 800 | 1 to 16 (≈ 1.93 to 30.9 µM) | ≤ 0.25 | 1 to 16 (≈ 1.93 to 30.9 µM) |  |  | CCNC(=O)Nc1nc2cc(-c3cnnc(N4CCC(C)(C(=O)O)CC4)c3)cc(-c3ccccn3)c2s1 [Compound 195, 1-[5-[2-(ethylcarbamoylamino)-7-(2-pyridyl)-1,3-benzothiazol-5-yl]pyridazin-3-yl]-4-methyl-piperidine-4-carboxylic acid] |
|  | 50 (≈ 93.4 µM) | 12.5 to 400 (≈ 23.3 to 747 µM) |  | 1 to 16 (≈ 1.87 to 29.9 µM) | 1 to 16 (≈ 1.87 to 29.9 µM) | 1 to 16 (≈ 1.87 to 29.9 µM) | 100 (≈ 187 µM) | 12.5 to 400 (≈ 23.3 to 747 µM) | CCNC(=O)Nc1nc2cc(-c3cnc(NC4COC(C)(C(=O)O)OC4)nc3)cc(-c3ccccn3)c2s1 (centres unmarked) [Compound 196] |
| ≥ 800 | ≥ 800 | > 800 | > 800 | 1 to 16 (≈ 1.91 to 30.6 µM) | 0.25 to 1 (≈ 0.477 to 1.91 µM) | 1 to 16 (≈ 1.91 to 30.6 µM) |  |  | CCNC(=O)Nc1nc2cc(-c3cnc(N4CCC(CC)(C(=O)O)CC4)nc3)cc(C3=NOCC3)c2s1 [Compound 197, 1-[5-[7-(4,5-dihydroisoxazol-3-yl)-2-(ethylcarbamoylamino)-1,3-benzothiazol-5-yl]pyrimidin-2-yl]-4-ethyl-piperidine-4-carboxylic acid] |
| ≥ 800 | ≥ 800 | > 800 | > 800 | 1 to 16 (≈ 2.13 to 34 µM) | 1 to 16 (≈ 2.13 to 34 µM) | 1 to 16 (≈ 2.13 to 34 µM) |  |  | CCNC(=O)Nc1nc2cc(-c3cnc(N4CCC(C)(C(=O)O)CC4)nc3)c(OC)cc2s1 [Compound 198, 1-[5-[2-(Ethylcarbamoylamino)-6-methoxy-1,3-benzothiazol-5-yl]pyrimidin-2-yl]-4-methyl-piperidine-4-carboxylic acid] |
| ≥ 800 | ≥ 800 | > 800 | > 800 | 1 to 16 (≈ 2.07 to 33.2 µM) | 0.25 to 1 (≈ 0.518 to 2.07 µM) | 1 to 16 (≈ 2.07 to 33.2 µM) |  |  | CCNC(=O)Nc1nc2cc(-c3cnc(N4CCC(CC)(C(=O)O)CC4)nc3)cc(C=O)c2s1 [Compound 199, 4-ethyl-1-[5-[2-(ethylcarbamoylamino)-7-formyl-1,3-benzothiazol-5-yl]pyrimidin-2-yl]piperidine-4-carboxylic acid] |
| ≥ 800 | ≥ 800 | > 800 | > 800 | 1 to 16 (≈ 2.13 to 34 µM) | 1 to 16 (≈ 2.13 to 34 µM) | 1 to 16 (≈ 2.13 to 34 µM) |  |  | CCNC(=O)Nc1nc2cc(-c3cnc(N4CCC(C)(C(=O)O)CC4)nc3)cc(OC)c2s1 [Compound 200, 1-[5-[2-(Ethylcarbamoylamino)-7-methoxy-1,3-benzothiazol-5-yl]pyrimidin-2-yl]-4-methyl-piperidine-4-carboxylic acid] |
| ≥ 800 | ≥ 800 | > 800 | > 800 | 1 to 16 (≈ 1.99 to 31.8 µM) | 0.25 to 1 (≈ 0.496 to 1.99 µM) | 1 to 16 (≈ 1.99 to 31.8 µM) |  |  | CCNC(=O)Nc1nc2cc(-c3cnc(N4CCC(C)(C(=O)O)C4)nc3)cc(-c3ccccn3)c2s1 (centres unmarked) [Compound 201] |
